Test system: test plant species
Assay: Post-emergent herbicidal activity test (greenhouse, foliar spray, visual growth reduction)
Assay type: in vivo
Conditions: post-emergence, 336 h, ALOMY: blackgrass (Alopecurus myosuroides), 140 g ai/ha, 14 days after application, read-out: Visual Growth Reduction (%) 14 Days After Application, ALOMY
Procedure: Post-emergent Test: Seeds or nutlets of the desired test plant species were planted in Sun Gro Metro-Mix® 360 planting mixture, which typically has a pH of 6.0 to 6.8 and an organic matter content of about 30 percent, in plastic pots with a surface area of 64 square centimeters. In some aspects, to ensure good germination and healthy plants, a fungicide treatment and/or other chemical or physical treatment was applied. The plants were grown for 7-21 d in a greenhouse with an approximate 15 h photoperiod which was maintained at 23-29° C. during the day and 22-28° C. during the night. Nutrients and water were added on a regular basis and supplemental lighting was provided with overhead metal halide 1000-Watt lamps as necessary. Plants were used for testing when they reached the first or second true leaf stage. A weighed amount, determined by the highest rate to be tested, of each test compound was placed in a 25 mL glass vial and was dissolved in 4 mL of a 97:3 v/v mixture of acetone and DMSO to obtain concentrated stock solutions. […] The concentrated stock solutions obtained were diluted with 20 mL of an aqueous mixture containing acetone, water, isopropyl alcohol, DMSO, […] crop oil concentrate, and X-77 surfactant in a 48.5:39:10:1.5:1.0:0.02 v/v ratio to obtain spray solutions containing the application rate. Compound requirements are based upon a 12 mL application volume at a rate of 187 liters per hectare (L/ha). Formulated compounds were applied to the plant material with an overhead Mandel track sprayer equipped with […] nozzles calibrated to deliver 187 L/ha over an application area of 0.64 square meters at a spray height of 18 inches (43 cm) above the average plant canopy height. Control plants were sprayed in the same manner with the solvent blank. The treated plants and control plants were placed in a greenhouse as described above and watered by subirrigation to prevent wash-off of the test compounds. After 14 d, the condition of the test plants as compared with that of the nontreated and control plants was determined visually and scored on a scale of 0 to 100 percent where 0 corresponds to no injury and 100 corresponds to complete control. In the reporting of the results, Table A: Percent Growth Reduction Conversion Table was used.

Structure (SMILES)	pest or weed control at 140 g/ha [%]
COC(=O)c1nc(-c2ccc(C(F)(F)F)cc2F)c(F)cc1Cl [F158, methyl 3-chloro-5-fluoro-6-(2-fluoro-4-(trifluoromethyl)phenyl)picolinate]	0 to 29
CO/N=C/c1ccc(-c2ccc(Cl)c(C(=O)OC)n2)c(Cl)c1 [F21, methyl 3-chloro-6-(2-chloro-4-((methoxyimino)methyl)phenyl)picolinate]	0 to 29

Same assay, conditions: post-emergence, 336 h, AMARE: redroot pigweed (Amaranthus retroflexus), 140 g ai/ha, 14 days after application, read-out: Visual Growth Reduction (%) 14 Days After Application, AMARE

Structure (SMILES)	pest or weed control at 140 g/ha [%]
COC(=O)c1nc(-c2ccc(C(F)(F)F)cc2F)c(F)cc1Cl [F158, methyl 3-chloro-5-fluoro-6-(2-fluoro-4-(trifluoromethyl)phenyl)picolinate]	95 to 100
CO/N=C/c1ccc(-c2ccc(Cl)c(C(=O)OC)n2)c(Cl)c1 [F21, methyl 3-chloro-6-(2-chloro-4-((methoxyimino)methyl)phenyl)picolinate]	0 to 29

Same assay, conditions: post-emergence, 336 h, AVEFA: wild oat (Avena fatua), 140 g ai/ha, 14 days after application, read-out: Visual Growth Reduction (%) 14 Days After Application, AVEFA

Structure (SMILES)	pest or weed control at 140 g/ha [%]
COC(=O)c1nc(-c2ccc(C(F)(F)F)cc2F)c(F)cc1Cl [F158, methyl 3-chloro-5-fluoro-6-(2-fluoro-4-(trifluoromethyl)phenyl)picolinate]	30 to 44
CO/N=C/c1ccc(-c2ccc(Cl)c(C(=O)OC)n2)c(Cl)c1 [F21, methyl 3-chloro-6-(2-chloro-4-((methoxyimino)methyl)phenyl)picolinate]	0 to 29

Same assay, conditions: post-emergence, 336 h, CHEAL: lambsquarters (Chenopodium album), 140 g ai/ha, 14 days after application, read-out: Visual Growth Reduction (%) 14 Days After Application, CHEAL

Structure (SMILES)	pest or weed control at 140 g/ha [%]
COC(=O)c1nc(-c2ccc(C(F)(F)F)cc2F)c(F)cc1Cl [F158, methyl 3-chloro-5-fluoro-6-(2-fluoro-4-(trifluoromethyl)phenyl)picolinate]	95 to 100
CO/N=C/c1ccc(-c2ccc(Cl)c(C(=O)OC)n2)c(Cl)c1 [F21, methyl 3-chloro-6-(2-chloro-4-((methoxyimino)methyl)phenyl)picolinate]	0 to 29

Same assay, conditions: post-emergence, 336 h, CIRAR: canada thistle (Cirsium arvense), 140 g ai/ha, 14 days after application, read-out: Visual Growth Reduction (%) 14 Days After Application, CIRAR

Structure (SMILES)	pest or weed control at 140 g/ha [%]
COC(=O)c1nc(-c2ccc(C(F)(F)F)cc2F)c(F)cc1Cl [F158, methyl 3-chloro-5-fluoro-6-(2-fluoro-4-(trifluoromethyl)phenyl)picolinate]	85 to 94
CO/N=C/c1ccc(-c2ccc(Cl)c(C(=O)OC)n2)c(Cl)c1 [F21, methyl 3-chloro-6-(2-chloro-4-((methoxyimino)methyl)phenyl)picolinate]	0 to 29

Same assay, conditions: post-emergence, 336 h, CYPES: yellow nutsedge (Cyperus esculentus), 140 g ai/ha, 14 days after application, read-out: Visual Growth Reduction (%) 14 Days After Application, CYPES

Structure (SMILES)	pest or weed control at 140 g/ha [%]
COC(=O)c1nc(-c2ccc(C(F)(F)F)cc2F)c(F)cc1Cl [F158, methyl 3-chloro-5-fluoro-6-(2-fluoro-4-(trifluoromethyl)phenyl)picolinate]	0 to 29
CO/N=C/c1ccc(-c2ccc(Cl)c(C(=O)OC)n2)c(Cl)c1 [F21, methyl 3-chloro-6-(2-chloro-4-((methoxyimino)methyl)phenyl)picolinate]	0 to 29

Same assay, conditions: post-emergence, 336 h, DIGSA: crabgrass (Digitaria sanguinalis), 140 g ai/ha, 14 days after application, read-out: Visual Growth Reduction (%) 14 Days After Application, DIGSA

Structure (SMILES)	pest or weed control at 140 g/ha [%]
COC(=O)c1nc(-c2ccc(C(F)(F)F)cc2F)c(F)cc1Cl [F158, methyl 3-chloro-5-fluoro-6-(2-fluoro-4-(trifluoromethyl)phenyl)picolinate]	85 to 94
CO/N=C/c1ccc(-c2ccc(Cl)c(C(=O)OC)n2)c(Cl)c1 [F21, methyl 3-chloro-6-(2-chloro-4-((methoxyimino)methyl)phenyl)picolinate]	0 to 29

Same assay, conditions: post-emergence, 336 h, ECHCG: barnyardgrass (Echinochloa crus-galli), 140 g ai/ha, 14 days after application, read-out: Visual Growth Reduction (%) 14 Days After Application, ECHCG

Structure (SMILES)	pest or weed control at 140 g/ha [%]
COC(=O)c1nc(-c2ccc(C(F)(F)F)cc2F)c(F)cc1Cl [F158, methyl 3-chloro-5-fluoro-6-(2-fluoro-4-(trifluoromethyl)phenyl)picolinate]	45 to 59

Same assay, conditions: post-emergence, 336 h, IPOHE: ivy-leaf morning glory (Ipomoea hederacea), 140 g ai/ha, 14 days after application, read-out: Visual Growth Reduction (%) 14 Days After Application, IPOHE

Structure (SMILES)	pest or weed control at 140 g/ha [%]
COC(=O)c1nc(-c2ccc(C(F)(F)F)cc2F)c(F)cc1Cl [F158, methyl 3-chloro-5-fluoro-6-(2-fluoro-4-(trifluoromethyl)phenyl)picolinate]	95 to 100

Same assay, conditions: post-emergence, 336 h, KCHSC: kochia (Bassia scoparia), 140 g ai/ha, 14 days after application, read-out: Visual Growth Reduction (%) 14 Days After Application, KCHSC

Structure (SMILES)	pest or weed control at 140 g/ha [%]
COC(=O)c1nc(-c2ccc(C(F)(F)F)cc2F)c(F)cc1Cl [F158, methyl 3-chloro-5-fluoro-6-(2-fluoro-4-(trifluoromethyl)phenyl)picolinate]	60 to 74

Same assay, conditions: post-emergence, 336 h, ORYSA: rice (Oryza sativa), 140 g ai/ha, 14 days after application, read-out: Visual Growth Reduction (%) 14 Days After Application, ORYSA

Structure (SMILES)	pest or weed control at 140 g/ha [%]
COC(=O)c1nc(-c2ccc(C(F)(F)F)cc2F)c(F)cc1Cl [F158, methyl 3-chloro-5-fluoro-6-(2-fluoro-4-(trifluoromethyl)phenyl)picolinate]	0 to 29

Same assay, conditions: post-emergence, 336 h, SETFA: giant foxtail (Setaria faberi), 140 g ai/ha, 14 days after application, read-out: Visual Growth Reduction (%) 14 Days After Application, SETFA

Structure (SMILES)	pest or weed control at 140 g/ha [%]
COC(=O)c1nc(-c2ccc(C(F)(F)F)cc2F)c(F)cc1Cl [F158, methyl 3-chloro-5-fluoro-6-(2-fluoro-4-(trifluoromethyl)phenyl)picolinate]	75 to 84

Same assay, conditions: post-emergence, 336 h, SORVU: grain sorghum (Sorghum vulgare), 140 g ai/ha, 14 days after application, read-out: Visual Growth Reduction (%) 14 Days After Application, SORVU

Structure (SMILES)	pest or weed control at 140 g/ha [%]
COC(=O)c1nc(-c2ccc(C(F)(F)F)cc2F)c(F)cc1Cl [F158, methyl 3-chloro-5-fluoro-6-(2-fluoro-4-(trifluoromethyl)phenyl)picolinate]	75 to 84

Same assay, conditions: post-emergence, 336 h, STEME: common chickweed (Stellaria media), 140 g ai/ha, 14 days after application, read-out: Visual Growth Reduction (%) 14 Days After Application, STEME

Structure (SMILES)	pest or weed control at 140 g/ha [%]
COC(=O)c1nc(-c2ccc(C(F)(F)F)cc2F)c(F)cc1Cl [F158, methyl 3-chloro-5-fluoro-6-(2-fluoro-4-(trifluoromethyl)phenyl)picolinate]	0 to 29

Same assay, conditions: post-emergence, 336 h, TRZAS: wheat, spring (Triticum aestivum), 140 g ai/ha, 14 days after application, read-out: Visual Growth Reduction (%) 14 Days After Application, TRZAS

Structure (SMILES)	pest or weed control at 140 g/ha [%]
COC(=O)c1nc(-c2ccc(C(F)(F)F)cc2F)c(F)cc1Cl [F158, methyl 3-chloro-5-fluoro-6-(2-fluoro-4-(trifluoromethyl)phenyl)picolinate]	60 to 74

Same assay, conditions: post-emergence, 336 h, barnyardgrass (Echinochloa crus-galli), 14 Days After Application, 140 g ai/ha, read-out: Visual Growth Reduction (%) ECHCG

Structure (SMILES)	pest or weed control at 140 g/ha [%]
CO/N=C/c1ccc(-c2ccc(Cl)c(C(=O)OC)n2)c(Cl)c1 [F21, methyl 3-chloro-6-(2-chloro-4-((methoxyimino)methyl)phenyl)picolinate]	0 to 29

Same assay, conditions: post-emergence, 336 h, common chickweed (Stellaria media), 14 Days After Application, 140 g ai/ha, read-out: Visual Growth Reduction (%) STEME

Structure (SMILES)	pest or weed control at 140 g/ha [%]
CO/N=C/c1ccc(-c2ccc(Cl)c(C(=O)OC)n2)c(Cl)c1 [F21, methyl 3-chloro-6-(2-chloro-4-((methoxyimino)methyl)phenyl)picolinate]	0 to 29

Same assay, conditions: post-emergence, 336 h, giant foxtail (Setaria faberi), 14 Days After Application, 140 g ai/ha, read-out: Visual Growth Reduction (%) SETFA

Structure (SMILES)	pest or weed control at 140 g/ha [%]
CO/N=C/c1ccc(-c2ccc(Cl)c(C(=O)OC)n2)c(Cl)c1 [F21, methyl 3-chloro-6-(2-chloro-4-((methoxyimino)methyl)phenyl)picolinate]	0 to 29

Same assay, conditions: post-emergence, 336 h, ivy-leaf morning glory (Ipomoea hederacea), 14 Days After Application, 140 g ai/ha, read-out: Visual Growth Reduction (%) IPOHE

Structure (SMILES)	pest or weed control at 140 g/ha [%]
CO/N=C/c1ccc(-c2ccc(Cl)c(C(=O)OC)n2)c(Cl)c1 [F21, methyl 3-chloro-6-(2-chloro-4-((methoxyimino)methyl)phenyl)picolinate]	0 to 29

Same assay, conditions: post-emergence, 336 h, johnsongrass (Sorghum vulgare), 14 Days After Application, 140 g ai/ha, read-out: Visual Growth Reduction (%) SORVU

Structure (SMILES)	pest or weed control at 140 g/ha [%]
CO/N=C/c1ccc(-c2ccc(Cl)c(C(=O)OC)n2)c(Cl)c1 [F21, methyl 3-chloro-6-(2-chloro-4-((methoxyimino)methyl)phenyl)picolinate]	0 to 29

Same assay, conditions: post-emergence, 336 h, kochia (Bassia scoparia), 14 Days After Application, 140 g ai/ha, read-out: Visual Growth Reduction (%) KCHSC

Structure (SMILES)	pest or weed control at 140 g/ha [%]
CO/N=C/c1ccc(-c2ccc(Cl)c(C(=O)OC)n2)c(Cl)c1 [F21, methyl 3-chloro-6-(2-chloro-4-((methoxyimino)methyl)phenyl)picolinate]	0 to 29

Same assay, conditions: post-emergence, 336 h, rice (Oryza sativa), 14 Days After Application, 140 g ai/ha, read-out: Visual Growth Reduction (%) ORYSA

Structure (SMILES)	pest or weed control at 140 g/ha [%]
CO/N=C/c1ccc(-c2ccc(Cl)c(C(=O)OC)n2)c(Cl)c1 [F21, methyl 3-chloro-6-(2-chloro-4-((methoxyimino)methyl)phenyl)picolinate]	0 to 29

Same assay, conditions: post-emergence, 336 h, wheat, spring (Triticum aestivum), 14 Days After Application, 140 g ai/ha, read-out: Visual Growth Reduction (%) TRZAS

Structure (SMILES)	pest or weed control at 140 g/ha [%]
CO/N=C/c1ccc(-c2ccc(Cl)c(C(=O)OC)n2)c(Cl)c1 [F21, methyl 3-chloro-6-(2-chloro-4-((methoxyimino)methyl)phenyl)picolinate]	0 to 29
